Measurements published in publication PMC9046087, “Structural basis of tethered agonism of the adhesion GPCRs ADGRD1 and ADGRF1” (Nature, 2022).
Where two headings read alike, the source gives them in different places. Ends that are not written are not given here.

Assays:
Assay in all cases: BRET assay using TRUPATH biosensors, Gi activation of ADGRF1
Type in all cases: cell-based
ADGRF1 [1] = molecular target: T1, ADGRF1 (Homo sapiens, UniProt Q5T601, W734A); details: ADGRF1 W734^ECL2A
T1 construct: Flag (N); expressed in transfected cells; host or cells: HEK293F
Method: (§1) To study the synthetic stalk peptide-induced G protein activation of ADGRD1 and ADGRF1, a BRET assay using TRUPATH biosensors was conducted to measure the proximal interaction between RLuc8 fused to the Gα subunit and GFP2 fused to the Gγ subunit. The TRUPATH suite of biosensors was obtained from Addgene (Addgene kit no. 1000000163) as a gift from B. Roth, including GαsS-RLuc8, Gαi1-RLuc8, Gβ3 and Gγ9-GFP2 as previously described.
(§2) The wild-type or mutant ADGRD1 and ADGRF1 were transiently co-transfected with plasmids encoding Gα-RLuc8 (GαsS-RLuc8 for Gs activation assay; Gαi1-RLuc8 for Gi activation assay), Gβ3 and Gγ9-GFP2 at a ratio of 2:1:1:1 (receptor plasmid, 800 ng; G protein subunit plasmids, 400 ng for each) in 2 ml HEK293F cells at a density of 1.2 × 10^6 cells per ml. Cell cultivation and receptor surface expression measurement were performed as described above. The cells were plated into 96-well white plates (40,000 cells per well) in 60 μl of assay buffer and incubated at 37 °C for 30 min. Then 10 μl of freshly prepared 50 μM coelenterazine 400a (Nanolight Technologies) was added. […] The cells were stimulated with 30 μl of synthetic stalk peptide at different concentrations and the BRET signals were monitored continuously five times. The last measurements were used in data analysis. The BRET ratios were calculated as the ratio of the GFP2 emission to RLuc8 emission.

ADGRF1 [2] = molecular target: T2, ADGRF1 (Homo sapiens, UniProt Q5T601, L678A); details: ADGRF1 L678^3.50bA
T2 construct: Flag (N); expressed in transfected cells; host or cells: HEK293F
Method: as §1, §2

ADGRF1 [3] = molecular target: T3, ADGRF1 (Homo sapiens, UniProt Q5T601, V761A); details: ADGRF1 V761^5.53bA, n = 3
T3 construct: Flag (N); expressed in transfected cells; host or cells: HEK293F
Method: as §1, §2

ADGRF1 [4] = molecular target: T4, ADGRF1 (Homo sapiens, UniProt Q5T601)
T4 construct: Flag (N); expressed in transfected cells; host or cells: HEK293F
T4 sequence (Q5T601 20-910): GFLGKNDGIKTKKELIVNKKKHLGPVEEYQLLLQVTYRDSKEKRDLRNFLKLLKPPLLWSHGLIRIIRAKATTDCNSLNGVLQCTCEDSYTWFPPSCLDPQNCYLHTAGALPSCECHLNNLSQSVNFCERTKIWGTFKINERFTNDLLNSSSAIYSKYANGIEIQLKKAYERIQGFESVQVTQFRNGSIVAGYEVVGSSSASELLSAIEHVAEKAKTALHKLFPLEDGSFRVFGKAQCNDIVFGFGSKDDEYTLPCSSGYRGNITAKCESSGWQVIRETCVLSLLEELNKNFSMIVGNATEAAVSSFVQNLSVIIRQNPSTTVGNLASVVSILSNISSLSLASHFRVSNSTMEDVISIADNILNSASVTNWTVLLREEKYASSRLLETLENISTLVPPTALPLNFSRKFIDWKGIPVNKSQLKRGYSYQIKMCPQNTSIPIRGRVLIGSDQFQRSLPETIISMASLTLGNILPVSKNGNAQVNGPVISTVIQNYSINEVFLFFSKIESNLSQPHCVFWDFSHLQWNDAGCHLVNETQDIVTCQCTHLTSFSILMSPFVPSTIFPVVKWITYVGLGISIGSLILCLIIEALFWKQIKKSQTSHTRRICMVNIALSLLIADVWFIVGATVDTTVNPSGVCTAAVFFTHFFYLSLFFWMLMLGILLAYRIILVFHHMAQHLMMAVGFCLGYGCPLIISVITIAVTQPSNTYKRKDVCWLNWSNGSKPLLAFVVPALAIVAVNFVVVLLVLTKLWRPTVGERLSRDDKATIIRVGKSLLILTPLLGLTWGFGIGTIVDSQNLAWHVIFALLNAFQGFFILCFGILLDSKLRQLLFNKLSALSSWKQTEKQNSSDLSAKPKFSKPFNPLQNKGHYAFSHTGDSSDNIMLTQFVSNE
Method: as §1, §2

ADGRF1 [5] = molecular target: T5, ADGRF1 (Homo sapiens, UniProt Q5T601, L681E); details: ADGRF1 L681^3.53bE
T5 construct: Flag (N); expressed in transfected cells; host or cells: HEK293F
Method: as §1, §2

ADGRF1 [6] = molecular target: T6, ADGRF1 (Homo sapiens, UniProt Q5T601, V732A); details: ADGRF1 V732^ECL2A, n = 3
T6 construct: Flag (N); expressed in transfected cells; host or cells: HEK293F
Method: as §1, §2

ADGRF1 [7] = molecular target: T7, ADGRF1 (Homo sapiens, UniProt Q5T601, L764A); details: ADGRF1 L764^5.56bA, n = 3
T7 construct: Flag (N); expressed in transfected cells; host or cells: HEK293F
Method: as §1, §2

ADGRF1 [8] = molecular target: T8, ADGRF1 (Homo sapiens, UniProt Q5T601, N827A); details: ADGRF1 N827^7.46bA
T8 construct: Flag (N); expressed in transfected cells; host or cells: HEK293F
Method: as §1, §2

ADGRF1 [9] = molecular target: T9, ADGRF1 (Homo sapiens, UniProt Q5T601, F672A); details: ADGRF1 F672^3.44bA
T9 construct: Flag (N); expressed in transfected cells; host or cells: HEK293F
Method: as §1, §2

ADGRF1 [10] = molecular target: T10, ADGRF1 (Homo sapiens, UniProt Q5T601, F641A); details: ADGRF1 F641^2.64bA
T10 construct: Flag (N); expressed in transfected cells; host or cells: HEK293F
Method: as §1, §2

ADGRF1 [11] = molecular target: T11, ADGRF1 (Homo sapiens, UniProt Q5T601, H820A); details: ADGRF1 H820^7.39bA
T11 construct: Flag (N); expressed in transfected cells; host or cells: HEK293F
Method: as §1, §2

ADGRF1 [12] = molecular target: T12, ADGRF1 (Homo sapiens, UniProt Q5T601, V748A); details: ADGRF1 V748^5.40bA
T12 construct: Flag (N); expressed in transfected cells; host or cells: HEK293F
Method: as §1, §2

ADGRF1 [13] = molecular target: T13, ADGRF1 (Homo sapiens, UniProt Q5T601, P798A); details: ADGRF1 P798^6.47bA
T13 construct: Flag (N); expressed in transfected cells; host or cells: HEK293F
Method: as §1, §2

[14] = n = 3, read-out: pEC50 (mean ± s.e.m.) (converted)

T3 sequence (Q5T601 20-910 V761A): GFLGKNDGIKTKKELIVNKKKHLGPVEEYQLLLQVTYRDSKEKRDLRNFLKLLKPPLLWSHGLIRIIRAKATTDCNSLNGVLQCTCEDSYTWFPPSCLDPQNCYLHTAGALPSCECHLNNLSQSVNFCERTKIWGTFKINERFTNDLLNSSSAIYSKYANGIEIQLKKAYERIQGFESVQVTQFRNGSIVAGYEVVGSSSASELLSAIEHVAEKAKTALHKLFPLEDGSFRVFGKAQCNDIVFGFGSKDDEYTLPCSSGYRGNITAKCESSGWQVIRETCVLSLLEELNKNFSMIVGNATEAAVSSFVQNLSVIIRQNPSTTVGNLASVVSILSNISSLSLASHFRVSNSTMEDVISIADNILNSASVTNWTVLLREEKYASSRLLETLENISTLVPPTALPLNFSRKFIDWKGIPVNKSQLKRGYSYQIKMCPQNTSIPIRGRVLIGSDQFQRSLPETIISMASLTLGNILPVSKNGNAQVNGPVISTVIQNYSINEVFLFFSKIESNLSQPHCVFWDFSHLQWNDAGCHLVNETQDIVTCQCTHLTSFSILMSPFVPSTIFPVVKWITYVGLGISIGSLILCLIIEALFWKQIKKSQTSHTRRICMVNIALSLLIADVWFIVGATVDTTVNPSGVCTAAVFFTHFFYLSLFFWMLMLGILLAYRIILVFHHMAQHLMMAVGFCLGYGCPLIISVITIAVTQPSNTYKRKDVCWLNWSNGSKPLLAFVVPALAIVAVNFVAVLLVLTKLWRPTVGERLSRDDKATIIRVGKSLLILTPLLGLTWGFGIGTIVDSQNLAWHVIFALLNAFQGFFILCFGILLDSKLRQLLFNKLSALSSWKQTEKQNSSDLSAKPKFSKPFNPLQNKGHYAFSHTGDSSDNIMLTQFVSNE
T11 sequence (Q5T601 20-910 H820A): as the sequence (Q5T601 20-910 V761A) above, with A742V, H801A counted along it
T6 sequence (Q5T601 20-910 V732A): as the sequence (Q5T601 20-910 V761A) above, with V713A, A742V counted along it
T2 sequence (Q5T601 20-910 L678A): as the sequence (Q5T601 20-910 V761A) above, with L659A, A742V counted along it
T1 sequence (Q5T601 20-910 W734A): as the sequence (Q5T601 20-910 V761A) above, with W715A, A742V counted along it
T8 sequence (Q5T601 20-910 N827A): as the sequence (Q5T601 20-910 V761A) above, with A742V, N808A counted along it
T9 sequence (Q5T601 20-910 F672A): as the sequence (Q5T601 20-910 V761A) above, with F653A, A742V counted along it
T13 sequence (Q5T601 20-910 P798A): as the sequence (Q5T601 20-910 V761A) above, with A742V, P779A counted along it
T12 sequence (Q5T601 20-910 V748A): as the sequence (Q5T601 20-910 V761A) above, with V729A, A742V counted along it
T10 sequence (Q5T601 20-910 F641A): as the sequence (Q5T601 20-910 V761A) above, with F622A, A742V counted along it
T5 sequence (Q5T601 20-910 L681E): as the sequence (Q5T601 20-910 V761A) above, with L662E, A742V counted along it
T7 sequence (Q5T601 20-910 L764A): as the sequence (Q5T601 20-910 V761A) above, with A742V, L745A counted along it

Emax (mean ± s.e.m.) (ADGRF1 [1]; n = 3): 60 ± 11 % of WT | EC50 (ADGRF1 [1]; [14]): 138 nM | Emax (mean ± s.e.m.) (ADGRF1 [2]; n = 3): 58 ± 7 % of WT | EC50 (ADGRF1 [2]; [14]): 129 nM | EC50 (ADGRF1 [3]): 1620 nM | Emax (mean ± s.e.m.) (ADGRF1 [3]): 124 ± 22 % of WT | Emax (mean ± s.e.m.) (ADGRF1 [4]; ADGRF1 Construct 1 (structure construct), n = 4): 90 ± 13 % of WT | EC50 (ADGRF1 [4]; ADGRF1 Construct 1 (structure construct), n = 4, read-out: pEC50 (mean ± s.e.m.) (converted)): 100 nM | Emax (mean ± s.e.m.) (ADGRF1 [4]; ADGRF1 WT, n = 30): 100 ± 3 % of WT | EC50 (ADGRF1 [4]; ADGRF1 WT, n = 30, read-out: pEC50 (mean ± s.e.m.) (converted)): 61.7 nM | Emax (mean ± s.e.m.) (ADGRF1 [5]; n = 3): 130 ± 12 % of WT | EC50 (ADGRF1 [5]; [14]): 794 nM | EC50 (ADGRF1 [6]): 1950 nM | Emax (mean ± s.e.m.) (ADGRF1 [6]): 73 ± 13 % of WT | EC50 (ADGRF1 [7]): 1300 nM | Emax (mean ± s.e.m.) (ADGRF1 [7]): 86 ± 14 % of WT | Emax (mean ± s.e.m.) (ADGRF1 [8]; n = 3): 122 ± 13 % of WT | EC50 (ADGRF1 [8]; [14]): 389 nM | Emax (mean ± s.e.m.) (ADGRF1 [9]; n = 3): 72 ± 12 % of WT | EC50 (ADGRF1 [9]; [14]): 437 nM | Emax (mean ± s.e.m.) (ADGRF1 [10]; n = 3): 82 ± 15 % of WT | EC50 (ADGRF1 [10]; [14]): 204 nM | Emax (mean ± s.e.m.) (ADGRF1 [11]; n = 3): 126 ± 12 % of WT | EC50 (ADGRF1 [11]; [14]): 275 nM | Emax (mean ± s.e.m.) (ADGRF1 [12]; n = 3): 85 ± 17 % of WT | EC50 (ADGRF1 [12]; [14]): 56.2 nM | Emax (mean ± s.e.m.) (ADGRF1 [13]; n = 3): 94 ± 17 % of WT | EC50 (ADGRF1 [13]; [14]): 912 nM
Sequence: TSFSILMSPFVP [pF1]
